What was measured:
Type in all cases: biochemical
TrkA = TrkA (Homo sapiens, UniProt P04629); experiment: Kinase activity assay, TrkA; details: Table 1m; read-out: activity toward kinase TrkA, IC50
Text: (§1) Assays for the activity of kinases, including, but not limited to, Fms, Kit, B-Raf, B-Raf V600E, c-Raf-1, and TrkA are known in the art, for example as described in US Patent Publication Number US20070032519 and U.S. patent application Ser. No. 11/473,347 (see also, PCT publication WO2007002433), the disclosures of which are hereby incorporated by reference with respect to such assays.

Kdr = Kdr (Homo sapiens, UniProt P35968); experiment: Kinase activity assay, Kdr; details: Table 1i; read-out: activity toward kinase Kdr, IC50
Sequence of Kdr (P35968 20-1356): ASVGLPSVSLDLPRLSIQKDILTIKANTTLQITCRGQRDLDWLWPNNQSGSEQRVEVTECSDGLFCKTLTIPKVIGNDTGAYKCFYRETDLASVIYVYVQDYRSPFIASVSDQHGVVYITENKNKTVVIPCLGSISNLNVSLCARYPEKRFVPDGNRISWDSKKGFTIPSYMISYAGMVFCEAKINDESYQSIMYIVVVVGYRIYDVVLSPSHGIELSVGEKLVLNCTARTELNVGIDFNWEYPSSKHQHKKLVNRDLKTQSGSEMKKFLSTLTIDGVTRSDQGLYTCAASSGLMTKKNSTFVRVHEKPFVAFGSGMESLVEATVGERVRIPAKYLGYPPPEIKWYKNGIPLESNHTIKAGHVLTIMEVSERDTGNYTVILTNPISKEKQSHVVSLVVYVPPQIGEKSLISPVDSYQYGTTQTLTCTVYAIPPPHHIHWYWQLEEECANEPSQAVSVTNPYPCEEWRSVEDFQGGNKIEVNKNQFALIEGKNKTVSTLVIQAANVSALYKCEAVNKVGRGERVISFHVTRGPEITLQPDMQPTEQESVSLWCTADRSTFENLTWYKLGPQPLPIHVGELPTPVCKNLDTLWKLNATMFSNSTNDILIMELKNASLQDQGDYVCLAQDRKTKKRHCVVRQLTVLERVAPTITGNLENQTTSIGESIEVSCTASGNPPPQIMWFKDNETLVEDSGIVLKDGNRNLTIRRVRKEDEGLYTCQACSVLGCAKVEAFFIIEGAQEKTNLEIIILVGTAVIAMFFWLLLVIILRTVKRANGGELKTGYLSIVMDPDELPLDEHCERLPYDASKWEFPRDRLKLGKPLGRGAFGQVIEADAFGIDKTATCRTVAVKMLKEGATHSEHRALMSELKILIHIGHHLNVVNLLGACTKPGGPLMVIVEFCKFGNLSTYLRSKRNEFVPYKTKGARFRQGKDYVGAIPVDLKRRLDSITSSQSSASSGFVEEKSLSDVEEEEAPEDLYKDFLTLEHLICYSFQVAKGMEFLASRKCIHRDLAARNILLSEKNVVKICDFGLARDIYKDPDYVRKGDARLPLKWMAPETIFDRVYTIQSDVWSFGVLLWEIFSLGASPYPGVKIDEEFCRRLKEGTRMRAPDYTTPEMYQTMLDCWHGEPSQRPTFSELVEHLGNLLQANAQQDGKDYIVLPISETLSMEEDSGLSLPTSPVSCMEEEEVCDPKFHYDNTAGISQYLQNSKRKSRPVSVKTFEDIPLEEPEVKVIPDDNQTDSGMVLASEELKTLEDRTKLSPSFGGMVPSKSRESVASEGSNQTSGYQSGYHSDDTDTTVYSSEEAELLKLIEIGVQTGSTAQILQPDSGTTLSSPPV
Text: as §1

Kit = Kit (Homo sapiens, UniProt P10721); experiment: Kinase activity assay, Kit; details: Table 1j; read-out: activity toward kinase Kit, IC50
Sequence of Kit (P10721 26-976): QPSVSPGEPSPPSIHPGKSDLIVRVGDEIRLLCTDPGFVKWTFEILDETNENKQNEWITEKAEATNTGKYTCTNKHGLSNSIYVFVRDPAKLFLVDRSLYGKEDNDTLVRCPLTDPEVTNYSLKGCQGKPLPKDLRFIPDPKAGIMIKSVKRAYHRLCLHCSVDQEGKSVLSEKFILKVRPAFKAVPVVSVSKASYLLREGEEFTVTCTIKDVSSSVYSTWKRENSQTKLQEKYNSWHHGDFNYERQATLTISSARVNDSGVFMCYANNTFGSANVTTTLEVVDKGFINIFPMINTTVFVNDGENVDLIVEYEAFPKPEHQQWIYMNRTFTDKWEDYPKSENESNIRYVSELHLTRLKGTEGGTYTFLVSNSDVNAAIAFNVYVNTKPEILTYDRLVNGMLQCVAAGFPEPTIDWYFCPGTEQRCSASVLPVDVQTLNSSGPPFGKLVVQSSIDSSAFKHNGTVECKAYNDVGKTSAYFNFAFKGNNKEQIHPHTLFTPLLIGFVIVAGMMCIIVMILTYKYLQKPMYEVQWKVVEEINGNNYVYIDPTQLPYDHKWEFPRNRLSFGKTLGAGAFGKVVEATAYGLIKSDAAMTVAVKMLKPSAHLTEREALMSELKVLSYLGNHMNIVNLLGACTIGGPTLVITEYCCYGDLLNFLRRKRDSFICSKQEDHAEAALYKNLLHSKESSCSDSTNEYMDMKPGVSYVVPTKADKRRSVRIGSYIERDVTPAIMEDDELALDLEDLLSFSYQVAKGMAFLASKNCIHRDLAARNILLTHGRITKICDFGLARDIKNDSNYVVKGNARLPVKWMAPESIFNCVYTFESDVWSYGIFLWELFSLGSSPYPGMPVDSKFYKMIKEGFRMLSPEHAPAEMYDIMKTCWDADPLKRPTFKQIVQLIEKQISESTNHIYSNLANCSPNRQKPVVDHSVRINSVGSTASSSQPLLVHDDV
Text: as §1

Fms = Fms (Homo sapiens, UniProt P07333); experiment: Kinase activity assay, Fms; details: Table 1h; read-out: activity toward kinase Fms, IC50
Sequence of Fms (P07333 20-972): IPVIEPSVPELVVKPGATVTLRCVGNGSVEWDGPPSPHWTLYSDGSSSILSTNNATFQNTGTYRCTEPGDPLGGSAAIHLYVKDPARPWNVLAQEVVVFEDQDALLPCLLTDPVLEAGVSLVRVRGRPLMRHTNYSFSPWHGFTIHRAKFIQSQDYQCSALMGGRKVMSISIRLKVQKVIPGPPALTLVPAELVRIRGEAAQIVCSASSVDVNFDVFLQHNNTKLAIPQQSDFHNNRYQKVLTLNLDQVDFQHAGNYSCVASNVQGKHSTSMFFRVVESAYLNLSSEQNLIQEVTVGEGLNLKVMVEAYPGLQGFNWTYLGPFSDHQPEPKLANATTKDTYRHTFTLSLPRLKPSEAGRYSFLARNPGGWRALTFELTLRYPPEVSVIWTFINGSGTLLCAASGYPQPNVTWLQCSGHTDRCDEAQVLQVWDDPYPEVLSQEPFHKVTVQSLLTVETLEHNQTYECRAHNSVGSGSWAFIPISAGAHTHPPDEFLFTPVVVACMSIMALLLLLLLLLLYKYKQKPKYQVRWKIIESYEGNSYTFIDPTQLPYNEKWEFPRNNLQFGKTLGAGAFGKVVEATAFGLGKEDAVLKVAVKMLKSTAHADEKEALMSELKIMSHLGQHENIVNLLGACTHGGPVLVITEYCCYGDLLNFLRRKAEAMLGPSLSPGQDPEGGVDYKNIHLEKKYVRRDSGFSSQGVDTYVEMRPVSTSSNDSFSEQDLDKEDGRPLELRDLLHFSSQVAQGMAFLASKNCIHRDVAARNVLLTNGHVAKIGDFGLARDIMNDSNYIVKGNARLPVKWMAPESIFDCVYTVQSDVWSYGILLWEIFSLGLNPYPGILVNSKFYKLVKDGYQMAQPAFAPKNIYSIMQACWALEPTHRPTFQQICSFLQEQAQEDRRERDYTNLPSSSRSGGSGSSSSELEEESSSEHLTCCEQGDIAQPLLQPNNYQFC
Text: as §1

B-Raf V600E = B-Raf V600E (Homo sapiens, UniProt P15056, V600E); experiment: Kinase activity assay, B-Raf V600E; details: Table 1c; read-out: activity toward kinase B-Raf V600E, IC50
Sequence of B-Raf V600E (P15056 whole entry V600E): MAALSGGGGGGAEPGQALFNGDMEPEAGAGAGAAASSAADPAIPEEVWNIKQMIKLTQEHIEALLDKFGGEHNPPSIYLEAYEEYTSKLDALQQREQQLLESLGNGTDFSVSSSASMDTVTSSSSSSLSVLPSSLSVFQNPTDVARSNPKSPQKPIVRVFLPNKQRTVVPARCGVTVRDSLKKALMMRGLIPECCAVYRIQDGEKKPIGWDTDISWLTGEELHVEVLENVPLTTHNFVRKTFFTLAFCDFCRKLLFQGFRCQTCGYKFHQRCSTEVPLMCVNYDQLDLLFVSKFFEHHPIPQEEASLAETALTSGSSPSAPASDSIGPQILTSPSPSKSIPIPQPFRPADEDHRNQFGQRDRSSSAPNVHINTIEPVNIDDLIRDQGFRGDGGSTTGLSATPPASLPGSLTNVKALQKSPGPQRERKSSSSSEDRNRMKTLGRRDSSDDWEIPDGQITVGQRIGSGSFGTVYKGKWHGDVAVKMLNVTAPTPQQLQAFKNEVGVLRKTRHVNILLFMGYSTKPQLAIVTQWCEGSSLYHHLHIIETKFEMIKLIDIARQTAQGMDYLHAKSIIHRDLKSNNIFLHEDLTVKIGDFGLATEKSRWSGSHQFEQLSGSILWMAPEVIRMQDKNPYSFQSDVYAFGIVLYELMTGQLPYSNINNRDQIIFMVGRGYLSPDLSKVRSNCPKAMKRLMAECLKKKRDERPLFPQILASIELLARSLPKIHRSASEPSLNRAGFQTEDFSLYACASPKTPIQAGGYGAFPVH
Text: as §1

Measured: IC50

Sequence of TrkA (P04629 33-796): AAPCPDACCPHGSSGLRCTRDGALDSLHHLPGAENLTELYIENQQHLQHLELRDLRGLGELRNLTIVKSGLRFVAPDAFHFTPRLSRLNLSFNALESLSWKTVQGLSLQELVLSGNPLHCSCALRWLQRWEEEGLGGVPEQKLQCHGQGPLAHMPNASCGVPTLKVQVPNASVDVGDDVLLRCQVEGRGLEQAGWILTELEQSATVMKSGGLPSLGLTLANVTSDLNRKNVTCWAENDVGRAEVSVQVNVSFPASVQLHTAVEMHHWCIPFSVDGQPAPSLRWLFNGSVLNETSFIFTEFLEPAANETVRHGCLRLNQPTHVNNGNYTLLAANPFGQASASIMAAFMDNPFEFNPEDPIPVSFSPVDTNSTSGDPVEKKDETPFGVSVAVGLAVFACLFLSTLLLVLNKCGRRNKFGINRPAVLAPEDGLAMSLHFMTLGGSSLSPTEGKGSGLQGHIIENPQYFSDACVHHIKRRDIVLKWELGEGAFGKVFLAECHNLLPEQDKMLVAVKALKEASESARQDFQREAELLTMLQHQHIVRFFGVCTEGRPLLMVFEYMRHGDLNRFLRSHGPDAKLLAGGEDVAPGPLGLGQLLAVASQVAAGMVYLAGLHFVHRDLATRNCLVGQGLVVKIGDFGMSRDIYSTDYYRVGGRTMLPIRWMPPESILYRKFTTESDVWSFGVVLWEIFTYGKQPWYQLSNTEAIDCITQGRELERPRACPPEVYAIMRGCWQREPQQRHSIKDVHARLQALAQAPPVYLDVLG

COc1ncc(CNc2ncc(Cc3c[nH]c4ncncc34)cn2)cc1F [P-0024, (5-Fluoro-6-methoxy-pyridin-3-ylmethyl)-[5-(7H-pyrrolo[2,3-d]pyrimidin-5-ylmethyl)-pyrimidin-2-yl]-amine]
not listed: B-Raf V600E
≤ 10 µM: all other assays above

Fc1nc(NCc2cc(C(F)(F)F)cc(C(F)(F)F)c2)ccc1Cc1c[nH]c2ncncc12 [P-0054, (3,5-Bis-trifluoromethyl-benzyl)-[6-fluoro-5-(7H-pyrrolo[2,3-d]pyrimidin-5-ylmethyl)-pyridin-2-yl]-amine]
not listed: B-Raf V600E
≤ 10 µM: all other assays above

CN(C)c1ccccc1CNc1ccc(Cc2c[nH]c3ncncc23)c(F)n1 [P-0061, (2-Dimethylamino-benzyl)-[6-fluoro-5-(7H-pyrrolo[2,3-d]pyrimidin-5-ylmethyl)-pyridin-2-yl]-amine]
not listed: B-Raf V600E
≤ 10 µM: all other assays above

Cc1cc(C)cc(CNc2ccc(Cc3c[nH]c4ncncc34)c(F)n2)c1 [P-0063, (3,5-Dimethyl-benzyl)-[6-fluoro-5-(7H-pyrrolo[2,3-d]pyrimidin-5-ylmethyl)-pyridin-2-yl]-amine]
≤ 10 µM: all assays above

Cc1cc(F)cc(CNc2ccc(Cc3c[nH]c4ncncc34)c(F)n2)c1 [P-0064, (3-Fluoro-5-methyl-benzyl)-[6-fluoro-5-(7H-pyrrolo[2,3-d]pyrimidin-5-ylmethyl)-pyridin-2-yl]-amine]
not listed: B-Raf V600E
≤ 10 µM: all other assays above

Fc1cc(Cl)cc(CNc2ccc(Cc3c[nH]c4ncncc34)c(F)n2)c1 [P-0067, (3-Chloro-5-fluoro-benzyl)-[6-fluoro-5-(7H-pyrrolo[2,3-d]pyrimidin-5-ylmethyl)-pyridin-2-yl]-amine]
≤ 10 µM: all assays above

CCOc1ncccc1CNc1ccc(Cc2c[nH]c3ncncc23)c(F)n1 [P-0069, (2-Ethoxy-pyridin-3-ylmethyl)-[6-fluoro-5-(7H-pyrrolo[2,3-d]pyrimidin-5-ylmethyl)-pyridin-2-yl]-amine]
not listed: B-Raf V600E
≤ 10 µM: all other assays above

COc1cc(CNc2ccc(Cc3c[nH]c4ncncc34)c(F)n2)cc(C(F)(F)F)c1 [P-0082, [6-Fluoro-5-(7H-pyrrolo[2,3-d]pyrimidin-5-ylmethyl)-pyridin-2-yl]-(3-methoxy-5-trifluoromethyl-benzyl)-amine]
not listed: B-Raf V600E
≤ 10 µM: all other assays above

COc1ncc(CNc2ccc(Cc3c[nH]c4ncnc(OC)c34)c(F)n2)cc1F [P-0091, (5-Fluoro-6-methoxy-pyridin-3-ylmethyl)-[6-fluoro-5-(4-methoxy-7H-pyrrolo[2,3-d]pyrimidin-5-ylmethyl)-pyridin-2-yl]-amine]
≤ 10 µM: all assays above

COc1ncc(F)cc1CNc1ccc(Cc2c[nH]c3ncnc(OC)c23)c(F)n1 [P-0094, (5-Fluoro-2-methoxy-pyridin-3-ylmethyl)-[6-fluoro-5-(4-methoxy-7H-pyrrolo[2,3-d]pyrimidin-5-ylmethyl)-pyridin-2-yl]-amine]
not listed: B-Raf V600E
≤ 10 µM: all other assays above
